# Data from BindingDB's records for doi:10.1021/jm00044a016 (University of Paris, 1994).
# Molecular target: Glutamyl aminopeptidase (Oryctolagus cuniculus)
# Experiment: Inhibition of aminopeptidase A (APA)
row,SMILES,Ki [nM]
1,NC(CS)CC(C(=O)O)C(=O)O (stereo not given) [2-(2-Amino-3-mercapto-propyl)-malonic acid],3500
2,NC(CS)CCCCC(=O)O (stereo not given) [6-Amino-7-mercapto-heptanoic acid],1600
3,NC(CS)CCCP(=O)(O)O (stereo not given) [(4-Amino-5-mercapto-pentyl)-phosphonic acid],510

# These reach a lower Ki. Values come first.
row,Ki [nM],SMILES
1,280,NC(CS)CCC(C(=O)O)C(=O)O (stereo not given) [2-(3-Amino-4-mercapto-butyl)-malonic acid]
2,370,N[C@H](CS)CCCS(=O)(=O)O [Sodium; (S)-4-amino-5-mercapto-pentane-1-sulfonate]
